Patent US8192962B2, “Processes for detecting toxic substances” (Daikin Industries, Ltd., priority 2001, dated 2012)

Test system: Genes belonging to other category
Assay: DNA chip mRNA expression in yeast, genes belonging to other category (Table 9)
Assay type: cell-based, Saccharomyces cerevisiae S288C
Method in brief: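 S. cerevisiae S288C grown at 25° C in YPD were exposed in log phase for two hours to one toxic chemical at a growth-inhibiting, non-lethal concentration; untreated cells served as control. Poly(A) mRNA was reverse-transcribed with Cy3/Cy5-dUTP and hybridized to a whole-genome yeast DNA chip at 65° C for over 12 hours; values are fluorescence ratios versus untreated.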

COc1cc(CNC(=O)CCCCC=CC(C)C)ccc1O [(12), 8-methyl-N-vanillyl-6-nonenamide]
The level of expressed mRNA in the presence of chemical substance/The level of expressed mRNA in the absence of chemical substance (yeast gene YJL116C): 1.1
The level of expressed mRNA in the presence of chemical substance/The level of expressed mRNA in the absence of chemical substance (yeast gene YJL164C): 1.0
The level of expressed mRNA in the presence of chemical substance/The level of expressed mRNA in the absence of chemical substance (yeast gene YJL210W): 1.0
The level of expressed mRNA in the presence of chemical substance/The level of expressed mRNA in the absence of chemical substance (yeast gene YJR004C): 0.8
The level of expressed mRNA in the presence of chemical substance/The level of expressed mRNA in the absence of chemical substance (yeast gene YJR049C): 1.0
The level of expressed mRNA in the presence of chemical substance/The level of expressed mRNA in the absence of chemical substance (yeast gene YJR086W): 0.8
The level of expressed mRNA in the presence of chemical substance/The level of expressed mRNA in the absence of chemical substance (yeast gene YJR091C): 0.8
The level of expressed mRNA in the presence of chemical substance/The level of expressed mRNA in the absence of chemical substance (yeast gene YKL008C): 1.5
The level of expressed mRNA in the presence of chemical substance/The level of expressed mRNA in the absence of chemical substance (yeast gene YKL013C): 0.7
The level of expressed mRNA in the presence of chemical substance/The level of expressed mRNA in the absence of chemical substance (yeast gene YKL039W): 0.9
The level of expressed mRNA in the presence of chemical substance/The level of expressed mRNA in the absence of chemical substance (yeast gene YKL041W): 0.8
The level of expressed mRNA in the presence of chemical substance/The level of expressed mRNA in the absence of chemical substance (yeast gene YKL093W): 0.9
The level of expressed mRNA in the presence of chemical substance/The level of expressed mRNA in the absence of chemical substance (yeast gene YKL096W): 0.3
The level of expressed mRNA in the presence of chemical substance/The level of expressed mRNA in the absence of chemical substance (yeast gene YKL097W-A): 0.7
The level of expressed mRNA in the presence of chemical substance/The level of expressed mRNA in the absence of chemical substance (yeast gene YKL117W): 1.0
The level of expressed mRNA in the presence of chemical substance/The level of expressed mRNA in the absence of chemical substance (yeast gene YKL139W): 0.8
The level of expressed mRNA in the presence of chemical substance/The level of expressed mRNA in the absence of chemical substance (yeast gene YKL165C): 2.4
The level of expressed mRNA in the presence of chemical substance/The level of expressed mRNA in the absence of chemical substance (yeast gene YKL193C): 0.9
The level of expressed mRNA in the presence of chemical substance/The level of expressed mRNA in the absence of chemical substance (yeast gene YKR014C): 1.1
The level of expressed mRNA in the presence of chemical substance/The level of expressed mRNA in the absence of chemical substance (yeast gene YKR102W): 0.8
The level of expressed mRNA in the presence of chemical substance/The level of expressed mRNA in the absence of chemical substance (yeast gene YLR078C): 1.0
The level of expressed mRNA in the presence of chemical substance/The level of expressed mRNA in the absence of chemical substance (yeast gene YLR080W): 0.8
The level of expressed mRNA in the presence of chemical substance/The level of expressed mRNA in the absence of chemical substance (yeast gene YLR093C): 1.0
The level of expressed mRNA in the presence of chemical substance/The level of expressed mRNA in the absence of chemical substance (yeast gene YLR118C): 1.0
The level of expressed mRNA in the presence of chemical substance/The level of expressed mRNA in the absence of chemical substance (yeast gene YLR120C): 1.6
The level of expressed mRNA in the presence of chemical substance/The level of expressed mRNA in the absence of chemical substance (yeast gene YLR136C): 1.3
The level of expressed mRNA in the presence of chemical substance/The level of expressed mRNA in the absence of chemical substance (yeast gene YLR178C): 2.2
The level of expressed mRNA in the presence of chemical substance/The level of expressed mRNA in the absence of chemical substance (yeast gene YLR250W): 1.0
The level of expressed mRNA in the presence of chemical substance/The level of expressed mRNA in the absence of chemical substance (yeast gene YLR251W): 0.8
The level of expressed mRNA in the presence of chemical substance/The level of expressed mRNA in the absence of chemical substance (yeast gene YLR327C): 1.4
The level of expressed mRNA in the presence of chemical substance/The level of expressed mRNA in the absence of chemical substance (yeast gene YLR340W): 0.9
The level of expressed mRNA in the presence of chemical substance/The level of expressed mRNA in the absence of chemical substance (yeast gene YLR356W): 1.5
The level of expressed mRNA in the presence of chemical substance/The level of expressed mRNA in the absence of chemical substance (yeast gene YLR362W): 0.8
The level of expressed mRNA in the presence of chemical substance/The level of expressed mRNA in the absence of chemical substance (yeast gene YLR391W): 1.0
The level of expressed mRNA in the presence of chemical substance/The level of expressed mRNA in the absence of chemical substance (yeast gene YLR429W): 1.1
The level of expressed mRNA in the presence of chemical substance/The level of expressed mRNA in the absence of chemical substance (yeast gene YMR004W): 1.0
The level of expressed mRNA in the presence of chemical substance/The level of expressed mRNA in the absence of chemical substance (yeast gene YMR053C): 0.9
The level of expressed mRNA in the presence of chemical substance/The level of expressed mRNA in the absence of chemical substance (yeast gene YMR091C): 0.8
The level of expressed mRNA in the presence of chemical substance/The level of expressed mRNA in the absence of chemical substance (yeast gene YMR092C): 0.9
The level of expressed mRNA in the presence of chemical substance/The level of expressed mRNA in the absence of chemical substance (yeast gene YMR094W): 0.9
The level of expressed mRNA in the presence of chemical substance/The level of expressed mRNA in the absence of chemical substance (yeast gene YMR104C): 1.0
The level of expressed mRNA in the presence of chemical substance/The level of expressed mRNA in the absence of chemical substance (yeast gene YMR219W): 1.5
The level of expressed mRNA in the presence of chemical substance/The level of expressed mRNA in the absence of chemical substance (yeast gene YMR226C): 1.1
The level of expressed mRNA in the presence of chemical substance/The level of expressed mRNA in the absence of chemical substance (yeast gene YMR238W): 1.0
The level of expressed mRNA in the presence of chemical substance/The level of expressed mRNA in the absence of chemical substance (yeast gene YMR275C): 0.7
The level of expressed mRNA in the presence of chemical substance/The level of expressed mRNA in the absence of chemical substance (yeast gene YMR276W): 1.2
The level of expressed mRNA in the presence of chemical substance/The level of expressed mRNA in the absence of chemical substance (yeast gene YMR314W): 1.0
The level of expressed mRNA in the presence of chemical substance/The level of expressed mRNA in the absence of chemical substance (yeast gene YNL006W): 0.7
The level of expressed mRNA in the presence of chemical substance/The level of expressed mRNA in the absence of chemical substance (yeast gene YNL007C): 0.7
The level of expressed mRNA in the presence of chemical substance/The level of expressed mRNA in the absence of chemical substance (yeast gene YNL015W): 2.8
The level of expressed mRNA in the presence of chemical substance/The level of expressed mRNA in the absence of chemical substance (yeast gene YNL093W): 1.1
The level of expressed mRNA in the presence of chemical substance/The level of expressed mRNA in the absence of chemical substance (yeast gene YNL147W): 0.8
The level of expressed mRNA in the presence of chemical substance/The level of expressed mRNA in the absence of chemical substance (yeast gene YNL333W): 1.0
The level of expressed mRNA in the presence of chemical substance/The level of expressed mRNA in the absence of chemical substance (yeast gene YNL335W): 0.8
The level of expressed mRNA in the presence of chemical substance/The level of expressed mRNA in the absence of chemical substance (yeast gene YNR010W): 0.8
The level of expressed mRNA in the presence of chemical substance/The level of expressed mRNA in the absence of chemical substance (yeast gene YNR037C): 0.7
The level of expressed mRNA in the presence of chemical substance/The level of expressed mRNA in the absence of chemical substance (yeast gene YNR069C): 1.2
The level of expressed mRNA in the presence of chemical substance/The level of expressed mRNA in the absence of chemical substance (yeast gene YOL013C): 1.1
The level of expressed mRNA in the presence of chemical substance/The level of expressed mRNA in the absence of chemical substance (yeast gene YOL164W): 1.1
The level of expressed mRNA in the presence of chemical substance/The level of expressed mRNA in the absence of chemical substance (yeast gene YOR036W): 1.2
The level of expressed mRNA in the presence of chemical substance/The level of expressed mRNA in the absence of chemical substance (yeast gene YOR117W): 2.5
The level of expressed mRNA in the presence of chemical substance/The level of expressed mRNA in the absence of chemical substance (yeast gene YOR124C): 0.9
The level of expressed mRNA in the presence of chemical substance/The level of expressed mRNA in the absence of chemical substance (yeast gene YOR132W): 0.7
The level of expressed mRNA in the presence of chemical substance/The level of expressed mRNA in the absence of chemical substance (yeast gene YOR157C): 1.3
The level of expressed mRNA in the presence of chemical substance/The level of expressed mRNA in the absence of chemical substance (yeast gene YOR181W): 0.8
The level of expressed mRNA in the presence of chemical substance/The level of expressed mRNA in the absence of chemical substance (yeast gene YOR185C): 1.5
The level of expressed mRNA in the presence of chemical substance/The level of expressed mRNA in the absence of chemical substance (yeast gene YOR198C): 1.5
The level of expressed mRNA in the presence of chemical substance/The level of expressed mRNA in the absence of chemical substance (yeast gene YOR229W): 0.8
The level of expressed mRNA in the presence of chemical substance/The level of expressed mRNA in the absence of chemical substance (yeast gene YOR259C): 0.8
The level of expressed mRNA in the presence of chemical substance/The level of expressed mRNA in the absence of chemical substance (yeast gene YOR261C): 0.9
The level of expressed mRNA in the presence of chemical substance/The level of expressed mRNA in the absence of chemical substance (yeast gene YOR265W): 0.8
The level of expressed mRNA in the presence of chemical substance/The level of expressed mRNA in the absence of chemical substance (yeast gene YOR288C): 1.4
The level of expressed mRNA in the presence of chemical substance/The level of expressed mRNA in the absence of chemical substance (yeast gene YOR355W): 0.9
The level of expressed mRNA in the presence of chemical substance/The level of expressed mRNA in the absence of chemical substance (yeast gene YOR383C): 1.1
The level of expressed mRNA in the presence of chemical substance/The level of expressed mRNA in the absence of chemical substance (yeast gene YPL089C): 0.7
The level of expressed mRNA in the presence of chemical substance/The level of expressed mRNA in the absence of chemical substance (yeast gene YPL109C): 0.9
The level of expressed mRNA in the presence of chemical substance/The level of expressed mRNA in the absence of chemical substance (yeast gene YPL149W): 0.9
The level of expressed mRNA in the presence of chemical substance/The level of expressed mRNA in the absence of chemical substance (yeast gene YPL154C): 1.5
The level of expressed mRNA in the presence of chemical substance/The level of expressed mRNA in the absence of chemical substance (yeast gene YPL230W): 1.0
The level of expressed mRNA in the presence of chemical substance/The level of expressed mRNA in the absence of chemical substance (yeast gene YPR066W): 0.8
The level of expressed mRNA in the presence of chemical substance/The level of expressed mRNA in the absence of chemical substance (yeast gene YPR103W): 1.2
The level of expressed mRNA in the presence of chemical substance/The level of expressed mRNA in the absence of chemical substance (yeast gene YPR108W): 1.0
The level of expressed mRNA in the presence of chemical substance/The level of expressed mRNA in the absence of chemical substance (yeast gene YPR140W): 0.8
The level of expressed mRNA in the presence of chemical substance/The level of expressed mRNA in the absence of chemical substance (yeast gene YPR185W): 0.8
